# Measurements published in US20160311914A1, “USE OF B LYMPHOCYTE STIMULATOR PROTEIN ANTAGONISTS TO PROMOTE TRANSPLANTATION TOLERANCE” (The Trustees of the University of Pennsylvania, priority 2009, published 2016).
# Columns and labels:
# [1] = tested on: Streptozotocin-treated diabetic BALB/c mice transplanted with B6 islets; experiment: Islet allograft survival, B6 islets transplanted into Streptozotocin-treated diabetic BALB/c mice; format: in vivo, mouse; settings: FIG. 2
# Description: (§1) FIG. 1 is a timeline detailing the administration of anti-B Lymphocyte Stimulator (anti-BLys™) antibodies and Rapamycin in Streptozotocin-treated diabetic mice transplanted with islets from another mouse strain.
# (§2) FIG. 2 is a graph illustrating the percent survival (y-axis) versus time in days (x-axis) for Streptozotocin-treated diabetic BALB/c mice transplanted with B6 islets. Mice were administered Rapamycin (Rapa) (-□-); anti-B Lymphocyte Stimulator (anti-BLys™) antibodies and Rapamycin (anti-BLys™/Rapa) (-Δ-); or neither (no treatment; control) (-⋄-) in accordance with the timeline set forth in FIG. 1.
# (§3) BLyS™ regulates mature B-lymphocyte survival and negative selection at the transitional to follicular (TR:FO) tolerance checkpoint. To determine the effect of BLyS™ in an in vivo allograft model, murine islet cells from B6 and BALB/c donor mice were transplanted into Streptozotocin-treated diabetic BALB/c and B6 mice, respectively. The recipient mice were treated with a regimen consisting of a B-lymphocyte depleting dose of a neutralizing anti-BLyS™ mAb (100 μg) on days 10 and 1 post-transplantation, followed by a weekly maintenance taper (50 μg×2 wks, 25 μg×2 wks, 10 μg×2 wks, and 5 μg×2 wks). Starting on the day of islet transplantation, the Streptozotocin treated diabetic recipients were treated with 0.5 mg/kg Rapamycin every other day for two weeks.
# [2] = tested on: Streptozotocin-treated diabetic B6 mice transplanted with BALB/c islets; experiment: Islet allograft survival, BALB/c islets transplanted into Streptozotocin-treated diabetic B6 mice; format: in vivo, mouse; settings: FIG. 3
# Description: as §1
# as §2, with “3” for “2”, “B6” for “BALB/c”, “BALB/c” for “B6”
# as §3
compound,measurement,setting,value
CO[C@H]1C[C@@H]2CC[C@@H](C)[C@@](O)(O2)C(=O)C(=O)N2CCCC[C@H]2C(=O)O[C@H]([C@H](C)C[C@@H]2CC[C@@H](O)[C@H](OC)C2)CC(=O)[C@H](C)/C=C(\C)[C@@H](O)[C@@H](OC)C(=O)[C@H](C)C[C@H](C)/C=C/C=C/C=C/1C [Rapamycin],mean survival time (MST),[1],61 days
same,mean survival time (MST),[2],39 days
